# B1: Scg2: wildtype full-length Scg2 (secretogranin II) precursor protein exogenously expressed from AAV in CA1 pyramidal cells (protein, UniProt Q03517 1-617, looked up)
# chain: MAGAKAYRLGAVLLLIHLIFLISGAEAASFQRNQLLQKEPDLRLENVQKFPSPEMIRALEYIEKLRQQAHREESSPDYNPYQGVSVPLQLKENGEESHLAESSRDALSEDEWMRIILEALRQAENEPPSAPKENKPYALNLEKNFPVDTPDDYETQQWPERKLKHMRFPLMYEENSRENPFKRTNEIVEEQYTPQSLATLESVFQELGKLTGPSNQKRERVDEEQKLYTDDEDDVYKTNNIAYEDVVGGEDWSPIEEKIETQTQEEVRDSKENTEKNEQINEEMKRSGQLGLPDEENRRESKDQLSEDASKVITYLRRLVNAVGSGRSQSGPNGDRAARLLQKPLDSQSIYQLIEISRNLQIPPEDLIEMLKAGEKPNGLVEPEQDLELAVDLDDIPEADLDRPDMFQSKMLSKGGYPKAPGRGMVEALPDGLSVEDILNVLGMENVVNQKSPYFPNQYSQDKALMRLPYGPGKSRANQIPKVAWIPDVESRQAPYENLNDQELGEYLARMLVKYPELLNTNQLKRVPSPVSSEDDLQEEEQLEQAIKEHLGPGSSQEMERLAKVSKRIPVGSLKNEDTPNRQYLDEDMLLKVLEYLNQEQAEQGREHLAKRAMENM
# modifications: full-length
# notes: wildtype full-length Scg2 (secretogranin II) precursor protein exogenously expressed from AAV in CA1 pyramidal cells
# Columns and labels:
# [1] = tested on: PV-IPSCs in CA1 PCs; assay: shRNA-mediated gene knockdown, dual whole-cell recordings of light-evoked PV-IPSCs; assay type: in vivo; conditions: Dlx5/6Flp; PVCre mice treated with KA for 24 h
# From the text: To identify molecular effector(s) of bidirectional perisomatic inhibitory plasticity downstream of Fos activation, short hairpin RNA (shRNA)-mediated gene knockdown was used to determine if any of the six candidate genes mediate the activity-dependent strengthening of PV-mediated inhibition. After verifying the efficiency of knockdown in neurons (see e.g., FIG. 13B) and the absence of adverse effects on overall neuronal viability, individual shRNAs were cloned into a Flp-OFF AAV, allowing payload inactivation by Flp recombinase and the exclusion of shRNA expression in GABAergic INs when using Dlx5/6^Flp mice (see e.g., FIG. 4A, FIG. 4B, FIG. 13C, FIG. 8A).
# Following sparse transduction of neurons, PV-IPSCs was simultaneously measured in neighboring pairs of shRNA-positive (mCherry^+) and shRNA-negative (mCherry^−) PCs by photostimulating PV-specific ChR2-expressing boutons in Dlx5/6^Flp; PV^Cre mice that had been treated with KA for 24 h (see e.g., FIG. 4B). […] Similar results were observed following more the physiological condition of NE exposure (see e.g., FIG. 4E, FIG. 13F), indicating a prominent role for CA1 PC-derived Scg2 in the long-term regulation of PV-mediated inhibition.
# Viral vectors and titers. All AAVs used were prepared in a Hospital Viral Core and were of serotype AAV2/1. For sparse transductions, viruses were injected at 1×10^8 genome copies per hippocampal hemisphere. For dense transductions, viruses were injected at 2×10^9 genome copies (gc) per hippocampal hemisphere. The viral vectors and original titers were as follows: pAAV-EF1a-DIO-hChR2(H134R)-EYFP (ADDGENE 20298, 1.75×10^13 gc/mL), pAAV-EF1a-fDIO-hChR2(H134R)-EYFP (ADDGENE 55639, 1.39×10^13 gc/mL), pAAV-hSyn-Con/Fon-hChR2-EYFP (ADDGENE 55645, […]), pAAV-pRAM-tTA::TRE-NLS-mKate2-WPREpA (ADDGENE 84474, 2.25×10^13 gc/mL), pAAV-CAG-Cre-GFP (OHIO STATE UNIVERSITY, 1.75×10^13 gc/mL), pAAV-CAG-Cre-mCherry (described herein, 9.10×10^12 gc/mL), pAAV-CAG-Cre-mTagBFP2 (described herein, 2.97×10^12 gc/mL), pAAV-CAG-deltaCre-GFP (described herein, 2.79×10^12 gc/mL), pAAV-FlpOFF-u6-shRNA-CAG-mCherry (described herein): Scrambled control shRNA (SEQ ID NO: 13, ACTTACGCTGAGTACTTCG) (5.08×10^13 gc/mL), Inhba (SEQ ID NO: 14, […]) (4.62×10^13 gc/mL), Bdnf (SEQ ID NO: 15, […]) (6.97×10^13 gc/mL), Pcsk1 (SEQ ID NO: 16, […]) (6.02×10^12 gc/mL), Nptx2 (SEQ ID NO: 17, […]) (1.30×10^12 gc/mL), Scg2#1 (SEQ ID NO: 18, […]) (8.11×10^11 gc/mL), Scg2#2 (SEQ ID NO: 19, […]) (2.75×10^13 gc/mL), Rgs2 (SEQ ID NO: 20, […]) (6.14×10^12 gc/mL), pAAV-CaMKIIa-mCherry (described herein, 3.80×1012 gc/mL), pAAV-CaMKIIa-hM3DGq-T2A-mCherry (described herein, 1.20×10^12 gc/mL), pAAV-hSyn-FlpOFF-Kir2.1-T2A-mCherry (described herein, 2.26×10^12 gc/mL), pAAV-hSyn-FlpOFF-Kir.2.1(Mutant)-T2A-mCherry (described herein, 1.28×10^12 gc/mL; see e.g., Xue et al. (2014), supra), pAAV-u6(Frt)-shRNA#31-CAG-Scg2-rescue (shRNA-resistant)-1×HA-T2A-mCherry-Frt-SV40 (described herein, 1.88×10^12 gc/mL), pAAV-CAG-DIO-Scg2(WT)-3×HA-bGH polyA (described herein, 8.22×10^13 gc/mL), pAAV-CAG-DIO-Scg2(9AA Mutant)-3×HA-bGH polyA (described herein, 6.13×10^13 gc/mL), pAAV-CAG-Frt-Scg2(WT)-1×HA-T2A-mCherry-Frt-bGH polyA (described herein, 1.08×10^13 gc/mL), and pAAV-CAG-Scg2(9AA Mutant)-1×HA-T2A-mCherry-Frt-bGH polyA (described herein, 3.71×10^12 gc/mL).
# Ex vivo electrophysiology.
# [2] = tested on: IPSCs in CA1 pyramidal neurons; assay: Check that IPSCs in dual whole-cell recordings are monosynaptic (onset latency); assay type: cell-based, mice; conditions: NBQX and (R)-CPP added together in the bath
# Method: For electrical stimulation experiments, electrical current was delivered via theta glass stimulation electrode placed in the center of stratum pyramidale or stratum radiatum within 150-200 μm of the recorded neuron pair. The stimulus strength was the minimum required to generate small but reliable currents in both neurons. IPSCs were pharmacologically isolated via the addition of 10 μM NBQX (TOCRIS 1044) and 10 μM (R)-CPP (TOCRIS 0247) to the ACSF perfusion.
# For the paired interneuron-to-CA1 pyramidal neuron recordings, the monosynaptic nature of the IPSCs was confirmed based on the expected onset latency of 1-3 ms in slice.
# [3] = tested on: CCK-IPSCs in CA1 PCs; assay: Scg2 rescue and overexpression, dual whole-cell recordings of CCK-IPSCs; assay type: in vivo, mice
# [4] = tested on: PV-IPSCs in CA1 PCs; assay: Scg2 rescue and overexpression, dual whole-cell recordings of PV-IPSCs; assay type: in vivo, mice
# From the text: These findings were further corroborated through a series of rescue and overexpression experiments. […] In addition, amplitudes of light-evoked PV-IPSCs or CCK-IPSC were compared in Scg2-overexpressing (Scg2-OE) and neighboring control (Scg2-WT) neurons; gain-of-function of Scg2 was sufficient to strengthen PV-mediated inhibition and weaken CCK-mediated inhibition, respectively, in the absence of neural activity (see e.g., FIG. 5J, FIG. 15E, FIG. 15F).
# Cleavage of the Scg2 precursor gives rise to multiple neuropeptides with distinct functions (see e.g., FIG. 4F). Given that Scg2 cleavage is directed by a series of internal dibasic residues, a cleavage-resistant form of Scg2 was generated in which the nine dibasic sequences were mutated to alanine (9AA-Mut).
# Viral vectors and titers. All AAVs used were prepared in a Hospital Viral Core and were of serotype AAV2/1. For sparse transductions, viruses were injected at 1×10^8 genome copies per hippocampal hemisphere. For dense transductions, viruses were injected at 2×10^9 genome copies (gc) per hippocampal hemisphere. […]
# [5] = exogenous expression in shRNA-mediated knockdown or Scg2fl/fl knockout conditions
# [6] = overexpression in the absence of neural activity
molecule,measurement,setting,value
"shRNA Rgs2: shRNA in pAAV-FlpOFF-u6-shRNA-CAG-mCherry, SEQ ID NO: 20, GCTCCCAAAGAGATAAACAT",amplitudes of PV-IPSC in shRNA-positive versus neighboring shRNA-negative PCs,[1],no effects
"shRNA Inhba: shRNA in pAAV-FlpOFF-u6-shRNA-CAG-mCherry, SEQ ID NO: 14, CCTTCCACTCAACAGTCATT",amplitudes of PV-IPSC in shRNA-positive versus neighboring shRNA-negative PCs,[1],no effects
"shRNA Nptx2: shRNA in pAAV-FlpOFF-u6-shRNA-CAG-mCherry, SEQ ID NO: 17, GAAGACATTGCCTGAGCTGT",amplitudes of PV-IPSC in shRNA-positive versus neighboring shRNA-negative PCs,[1],no effects
"shRNA Pcsk1: shRNA in pAAV-FlpOFF-u6-shRNA-CAG-mCherry, SEQ ID NO: 16, GATAATGATCATGATCCATT",amplitudes of PV-IPSC in shRNA-positive versus neighboring shRNA-negative PCs,[1],no effects
"NS(=O)(=O)c1cccc2c1c([N+](=O)[O-])cc1nc(O)c(O)nc12 [NBQX, 2,3-dihydroxy-6-nitro-7-sulphamoyl-benzo(F)quinoxaline]",onset latency of the IPSCs,[2],did not alter
"O=C(O)[C@H]1CN(CCCP(=O)(O)O)CCN1 [(R)-CPP, 3-((R)-2-Carboxypiperazin-4-yl)-propyl-1-phosphonic acid]",onset latency of the IPSCs,[2],did not alter
"shRNA Bdnf: shRNA in pAAV-FlpOFF-u6-shRNA-CAG-mCherry, SEQ ID NO: 15, GAATTGGCTGGCGATTCATA",amplitudes of PV-IPSC in shRNA-positive versus neighboring shRNA-negative PCs,[1],slight decrease
B1,"CCK-mediated inhibition, rescue of loss of Scg2",[3]; [5],restored to control levels
same,"CCK-mediated inhibition, overexpressing versus neighboring control neurons",[3]; [6],weaken
same,"PV-mediated inhibition, rescue of loss of Scg2",[4]; [5],restored to control levels
same,"PV-mediated inhibition, overexpressing versus neighboring control neurons",[4]; [6],strengthen
